Reference: US8993542B2, “Methods of treating viral infections” (priority 2008, dated 2015)

Key:
[1] = system: HIV; test: microbe, parasite or virus in culture; type: cell-based
[2] = system: HIV-1IIIB; test: Two-drug combination antiviral assay in CEM cells (CPE), MacSynergy II; type: cell-based; settings: for Antagonism Volume, Result 1 / Antagonism Volume, Result 2 / Antagonism Volume, Result 3 / Mean Antagonism Volume (n = 3) / Mean Synergy Volume (n = 3) / Synergy Volume, Result 1 / Synergy Volume, Result 2 / Synergy Volume, Result 3: in combination with CMX157, CEM-SS cells, 95% confidence; for Interpretation of Antiviral Results (MacSynergy): two-drug combination (with CMX157; control d4T/RBV), CEM-SS cells

## Cc1cn([C@H]2C=C[C@@H](CO)O2)c(=O)[nH]c1=O [d4T, 2′,3′-didehydro-3′-deoxythymidine]
[1]; Human immunodeficiency virus 1, PANEL 1, WT
  IC50: 510 nM
[1]; Human immunodeficiency virus 1, PANEL 2, WT
  IC50: 480 nM
[1]; Human immunodeficiency virus 1, PANEL 3, 6 TAMs, no 184
  IC50: 2170 nM
[1]; Human immunodeficiency virus 1, PANEL 6, 6 TAMs + 184
  IC50: 1350 nM
[1]; Human immunodeficiency virus 1, PANEL 7, 184V
  IC50: 460 nM
[1]; Human immunodeficiency virus 1, PANEL 9, 69ins, no 184
  IC50: 6390 nM
[1]; Human immunodeficiency virus 1, PANEL 12, 69ins + 184
  IC50: 6790 nM
[1]; Human immunodeficiency virus 1, PANEL 14, 65R, no 184
  IC50: 770 nM
[1]; Human immunodeficiency virus 1, PANEL 15, 65R + 184V
  IC50: 590 nM
[1]; Human immunodeficiency virus 1, PANEL 17, L74V
  IC50: 600 nM
[1]; Human immunodeficiency virus 1, PANEL 19, L74V + M184V
  IC50: 420 nM
[1]; Human immunodeficiency virus 1, PANEL 26, 151M, no 184
  IC50: 5540 nM
[1]; Human immunodeficiency virus 1, PANEL 28, 151M + 184
  IC50: 4220 nM
[1]; Human immunodeficiency virus 1, PANEL 29, L74V − SDM
  IC50: 630 nM
[1]; Human immunodeficiency virus 1, PANEL 30, M184V − SDM
  IC50: 400 nM
[1]; Human immunodeficiency virus 1, PANEL 31, K65R − SDM
  IC50: 830 nM
[1]; Human immunodeficiency virus 1, PANEL 33, T215Y
  IC50: 830 nM
[1]; Human immunodeficiency virus 1, PANEL 34, T215Y + M184V
  IC50: 650 nM
[1]; Human immunodeficiency virus 1, PANEL 35, M41L + T215Y
  IC50: 840 nM
[1]; Human immunodeficiency virus 1, PANEL 37, M41L + T215Y + M184V
  IC50: 860 nM
[1]; Human immunodeficiency virus 1, PANEL 38, M41L + L210W + T215Y
  IC50: 1220 nM
[1]; Human immunodeficiency virus 1, PANEL 39, M41L + L210W + T215Y
  IC50: 1090 nM
[1]; Human immunodeficiency virus 1, PANEL 40, M41L + L210W + T215Y + M184V
  IC50: 880 nM
[1]; Human immunodeficiency virus 1, PANEL 41, M41L + L210W + T215Y + M184V
  IC50: 1050 nM
[1]; Human immunodeficiency virus 1, PANEL 42, D67N + K70R
  IC50: 780 nM
[1]; Human immunodeficiency virus 1, PANEL 44, D67N + K70R + T215F + K219E + M184V
  IC50: 790 nM
[1]; Human immunodeficiency virus 1, PANEL 45, L210W + T215Y
  IC50: 940 nM
[1]; Human immunodeficiency virus 1, PANEL 46, D67N + K70E
  IC50: 560 nM
[1]; Human immunodeficiency virus 1, PANEL 47, D67N + K70E + M184V
  IC50: 420 nM
[1]; Human immunodeficiency virus 1, PANEL 48, K70E + M184V
  IC50: 390 nM
[1]; PANEL 1, WT
  IC50 Fold Change: 0.86
[1]; PANEL 2, WT
  IC50 Fold Change: 0.81
[1]; PANEL 3, 6 TAMs, no 184
  IC50 Fold Change: 3.66
[1]; PANEL 6, 6 TAMs + 184
  IC50 Fold Change: 2.28
[1]; PANEL 7, 184V
  IC50 Fold Change: 0.77
[1]; PANEL 9, 69ins, no 184
  IC50 Fold Change: 11.00
[1]; PANEL 12, 69ins + 184
  IC50 Fold Change: 11.00
[1]; PANEL 14, 65R, no 184
  IC50 Fold Change: 1.30
[1]; PANEL 15, 65R + 184V
  IC50 Fold Change: 0.99
[1]; PANEL 17, L74V
  IC50 Fold Change: 1.01
[1]; PANEL 19, L74V + M184V
  IC50 Fold Change: 0.71
[1]; PANEL 26, 151M, no 184
  IC50 Fold Change: 9.33
[1]; PANEL 28, 151M + 184
  IC50 Fold Change: 7.10
[1]; PANEL 29, L74V − SDM
  IC50 Fold Change: 1.07
[1]; PANEL 30, M184V − SDM
  IC50 Fold Change: 0.68
[1]; PANEL 31, K65R − SDM
  IC50 Fold Change: 1.40
[1]; PANEL 33, T215Y
  IC50 Fold Change: 1.40
[1]; PANEL 34, T215Y + M184V
  IC50 Fold Change: 1.10
[1]; PANEL 35, M41L + T215Y
  IC50 Fold Change: 1.41
[1]; PANEL 37, M41L + T215Y + M184V
  IC50 Fold Change: 1.46
[1]; PANEL 38, M41L + L210W + T215Y
  IC50 Fold Change: 2.06
[1]; PANEL 39, M41L + L210W + T215Y
  IC50 Fold Change: 1.84
[1]; PANEL 40, M41L + L210W + T215Y + M184V
  IC50 Fold Change: 1.48
[1]; PANEL 41, M41L + L210W + T215Y + M184V
  IC50 Fold Change: 1.77
[1]; PANEL 42, D67N + K70R
  IC50 Fold Change: 1.31
[1]; PANEL 44, D67N + K70R + T215F + K219E + M184V
  IC50 Fold Change: 1.32
[1]; PANEL 45, L210W + T215Y
  IC50 Fold Change: 1.58
[1]; PANEL 46, D67N + K70E
  IC50 Fold Change: 0.94
[1]; PANEL 47, D67N + K70E + M184V
  IC50 Fold Change: 0.70
[1]; PANEL 48, K70E + M184V
  IC50 Fold Change: 0.65
[2]
  Antagonism Volume, Result 1: 0 nM^2 %, μM^2 % or nMμM %
  Antagonism Volume, Result 2: 0 nM^2 %, μM^2 % or nMμM %
  Antagonism Volume, Result 3: −1.83 nM^2 %, μM^2 % or nMμM %
  Mean Antagonism Volume (n = 3): −0.61 nM^2 %, μM^2 % or nMμM %
  Mean Synergy Volume (n = 3): 15.2 nM^2 %, μM^2 % or nMμM %
  Synergy Volume, Result 1: 4.47 nM^2 %, μM^2 % or nMμM %
  Synergy Volume, Result 2: 40.6 nM^2 %, μM^2 % or nMμM %
  Synergy Volume, Result 3: 0.39 nM^2 %, μM^2 % or nMμM %

## CC(C)Nc1cccnc1N1CCN(C(=O)c2cc3cc(NS(C)(=O)=O)ccc3[nH]2)CC1 [Delavirdine (DLV), delavirdine]
[2]
  Antagonism Volume, Result 1: 0 nM^2 %, μM^2 % or nMμM %
  Antagonism Volume, Result 2: 0 nM^2 %, μM^2 % or nMμM %
  Antagonism Volume, Result 3: −2.58 nM^2 %, μM^2 % or nMμM %
  Mean Antagonism Volume (n = 3): 0 nM^2 %, μM^2 % or nMμM %
  Mean Synergy Volume (n = 3): 72.9 nM^2 %, μM^2 % or nMμM %
  Synergy Volume, Result 1: 152 nM^2 %, μM^2 % or nMμM %
  Synergy Volume, Result 2: 68.4 nM^2 %, μM^2 % or nMμM %
  Synergy Volume, Result 3: 1.01 nM^2 %, μM^2 % or nMμM %
  Interpretation of Antiviral Results (MacSynergy): slightly synergistic

## CC(C)CN(C[C@@H](O)[C@H](Cc1ccccc1)NC(=O)O[C@H]1CO[C@H]2OCC[C@H]21)S(=O)(=O)c1ccc(N)cc1 [Darunavir (DRV), darunavir]
[2]
  Antagonism Volume, Result 1: 0 nM^2 %, μM^2 % or nMμM %
  Antagonism Volume, Result 2: −2.31 nM^2 %, μM^2 % or nMμM %
  Antagonism Volume, Result 3: 0 nM^2 %, μM^2 % or nMμM %
  Mean Antagonism Volume (n = 3): −0.54 nM^2 %, μM^2 % or nMμM %
  Mean Synergy Volume (n = 3): 43.2 nM^2 %, μM^2 % or nMμM %
  Synergy Volume, Result 1: 109 nM^2 %, μM^2 % or nMμM %
  Synergy Volume, Result 2: 11.5 nM^2 %, μM^2 % or nMμM %
  Synergy Volume, Result 3: 9.48 nM^2 %, μM^2 % or nMμM %

## Cc1c(O)cccc1C(=O)N[C@@H](CSc1ccccc1)[C@H](O)CN1C[C@H]2CCCC[C@H]2C[C@H]1C(=O)NC(C)(C)C [Nelfinavir (NFV), nelfinavir]
[2]
  Antagonism Volume, Result 1: 0 nM^2 %, μM^2 % or nMμM %
  Antagonism Volume, Result 2: 0 nM^2 %, μM^2 % or nMμM %
  Antagonism Volume, Result 3: 0 nM^2 %, μM^2 % or nMμM %
  Mean Antagonism Volume (n = 3): 0 nM^2 %, μM^2 % or nMμM %
  Mean Synergy Volume (n = 3): 80.9 nM^2 %, μM^2 % or nMμM %
  Synergy Volume, Result 1: 32.1 nM^2 %, μM^2 % or nMμM %
  Synergy Volume, Result 2: 85.1 nM^2 %, μM^2 % or nMμM %
  Synergy Volume, Result 3: 125 nM^2 %, μM^2 % or nMμM %
  Interpretation of Antiviral Results (MacSynergy): slightly synergistic

## COC(=O)N[C@H](C(=O)N[C@@H](Cc1ccccc1)[C@@H](O)CN(Cc1ccc(-c2ccccn2)cc1)NC(=O)[C@@H](NC(=O)OC)C(C)(C)C)C(C)(C)C [Atazanavir (ATV), atazanavir]
[2]
  Interpretation of Antiviral Results (MacSynergy): slightly synergistic

## Nc1ccn([C@H]2CC[C@@H](CO)O2)c(=O)n1 [Zalcitabine (ddC), 2′,3′-dideoxycytidine]
[2]
  Antagonism Volume, Result 1: 0 nM^2 %, μM^2 % or nMμM %
  Antagonism Volume, Result 2: 0 nM^2 %, μM^2 % or nMμM %
  Antagonism Volume, Result 3: −15.9 nM^2 %, μM^2 % or nMμM %
  Mean Antagonism Volume (n = 3): −5.29 nM^2 %, μM^2 % or nMμM %
  Mean Synergy Volume (n = 3): 122 nM^2 %, μM^2 % or nMμM %
  Synergy Volume, Result 1: 154 nM^2 %, μM^2 % or nMμM %
  Synergy Volume, Result 2: 80.0 nM^2 %, μM^2 % or nMμM %
  Synergy Volume, Result 3: 131 nM^2 %, μM^2 % or nMμM %
  Interpretation of Antiviral Results (MacSynergy): highly synergistic

## Cc1ccnc2c1NC(=O)c1cccnc1N2C1CC1 [Nevirapine (NVP), nevirapine]
[2]
  Antagonism Volume, Result 1: 0 nM^2 %, μM^2 % or nMμM %
  Antagonism Volume, Result 2: 0 nM^2 %, μM^2 % or nMμM %
  Antagonism Volume, Result 3: 0/0 nM^2 %, μM^2 % or nMμM %
  Mean Antagonism Volume (n = 3): 0 nM^2 %, μM^2 % or nMμM %
  Mean Synergy Volume (n = 3): 38.5 nM^2 %, μM^2 % or nMμM %
  Synergy Volume, Result 1: 74.1 nM^2 %, μM^2 % or nMμM %
  Synergy Volume, Result 2: 41.5 nM^2 %, μM^2 % or nMμM %
  Synergy Volume, Result 3: 0/0 nM^2 %, μM^2 % or nMμM %

## CCC[C@@]1(CCc2ccccc2)CC(O)=C([C@H](CC)c2cccc(NS(=O)(=O)c3ccc(C(F)(F)F)cn3)c2)C(=O)O1 [Tipranavir (TPV), tipranavir]
[2]
  Antagonism Volume, Result 1: 0 nM^2 %, μM^2 % or nMμM %
  Antagonism Volume, Result 2: −8.60 nM^2 %, μM^2 % or nMμM %
  Antagonism Volume, Result 3: 0 nM^2 %, μM^2 % or nMμM %
  Mean Antagonism Volume (n = 3): −2.87 nM^2 %, μM^2 % or nMμM %
  Mean Synergy Volume (n = 3): 52.2 nM^2 %, μM^2 % or nMμM %
  Synergy Volume, Result 1: 110 nM^2 %, μM^2 % or nMμM %
  Synergy Volume, Result 2: 29.4 nM^2 %, μM^2 % or nMμM %
  Synergy Volume, Result 3: 16.8 nM^2 %, μM^2 % or nMμM %

## CC(C)c1nc(CN(C)C(=O)N[C@H](C(=O)N[C@@H](Cc2ccccc2)C[C@H](O)[C@H](Cc2ccccc2)NC(=O)OCc2cncs2)C(C)C)cs1 [Ritonavir (RTV), ritonavir]
[2]
  Antagonism Volume, Result 1: 0 nM^2 %, μM^2 % or nMμM %
  Antagonism Volume, Result 2: 0 nM^2 %, μM^2 % or nMμM %
  Antagonism Volume, Result 3: −2.61 nM^2 %, μM^2 % or nMμM %
  Mean Antagonism Volume (n = 3): 0 nM^2 %, μM^2 % or nMμM %
  Mean Synergy Volume (n = 3): 66.4 nM^2 %, μM^2 % or nMμM %
  Synergy Volume, Result 1: 47.5 nM^2 %, μM^2 % or nMμM %
  Synergy Volume, Result 2: 38.0 nM^2 %, μM^2 % or nMμM %
  Synergy Volume, Result 3: 116 nM^2 %, μM^2 % or nMμM %
  Interpretation of Antiviral Results (MacSynergy): slightly synergistic
